Measured values: patent US20230087118A1, “IMIDAZO[1,2-a][sequence] DERIVATIVES AND THEIR USE IN THE TREATMENT OF DISEASE” (priority 2019, published 2023)
Where a name gives a salt, the structure may show the parent alone.

Molecular target: T1, IRAK4 (Homo sapiens, UniProt Q9NWZ3)
T1 sequence (Q9NWZ3 1-460): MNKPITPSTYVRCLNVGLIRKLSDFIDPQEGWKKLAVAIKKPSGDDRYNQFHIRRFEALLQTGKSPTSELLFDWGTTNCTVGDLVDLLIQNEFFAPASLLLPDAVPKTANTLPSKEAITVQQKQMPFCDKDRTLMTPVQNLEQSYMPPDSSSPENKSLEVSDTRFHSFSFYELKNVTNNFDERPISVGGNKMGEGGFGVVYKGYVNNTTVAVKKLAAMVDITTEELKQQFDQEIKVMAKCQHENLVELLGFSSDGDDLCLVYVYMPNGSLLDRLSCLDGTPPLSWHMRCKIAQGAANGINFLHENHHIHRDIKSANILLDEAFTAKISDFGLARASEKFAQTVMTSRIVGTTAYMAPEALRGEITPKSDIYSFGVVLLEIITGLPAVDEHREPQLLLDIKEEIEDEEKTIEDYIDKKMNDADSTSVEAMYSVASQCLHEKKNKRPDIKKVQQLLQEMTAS
Experiment: biochemical
Settings: not given

Compared with `CC(C)Oc1cc2nc(C34CCC(C)(C3)OC4)cn2cc1C(=O)Nc1cnn2cccnc12` (stereo not shown) [Example 417, 7-Isopropoxy-2-(1-methyl-2-oxabicyclo[2.2.1]heptan-4-yl)-N-(pyrazolo[1,5-a]pyrimidin-3-yl)imidazo[1,2-a]pyridine-6-carboxamide], `CC(C)Oc1cc2nc(C34CCC(C)(C3)OC4)cn2cc1C(=O)Nc1cnn2c1OCCC2` (stereo not shown) [Example 250] is 6.5-fold higher in IC50: 0.0002 µM for the first, 0.0013 µM for the second. The first is the more potent here.

Going from `CC(C)Oc1cc2nc([C@]34CC[C@](C)(C3)OC4)cn2cc1C(=O)Nc1cc(F)n(C)n1` (single isomer, unassigned) [Example 602] to `COCCn1ccc(NC(=O)c2cn3cc(C45COC(C)(C4)C5)nc3cc2OC(C)C)n1` [Example 314, 7-Isopropoxy-N-(1-(2-methoxyethyl)-1H-pyrazol-3-yl)-2-(1-methyl-2-oxabicyclo[2.1.1]hexan-4-yl)imidazo[1,2-a]pyridine-6-carboxamide], the IC50 rises from 0.0051 µM to 0.0258 µM (5.1-fold).

`CC(C)Oc1nc(C(=O)Nc2cnn3cccnc23)cn2cc(C34CCC(C)(CC3)OC4)nc12` [Example 428, 8-Isopropoxy-2-(1-methyl-2-oxabicyclo[2.2.2]octan-4-yl)-N-(pyrazolo[1,5-a]pyrimidin-3-yl)imidazo[1,2-a]pyrazine-6-carboxamide] and `CC(C)Oc1nc(C(=O)Nc2cccc(C(F)F)n2)cn2cc([C@@]34CC[C@@](C)(C3)OC4)nc12` (single isomer, unassigned) [Example 588] are within 1.5-fold of each other in IC50: 0.0016 µM for the first, 0.0015 µM for the second.

`CCOc1nc(C(=O)Nc2cccc(Cl)c2F)cn2cc(C34COC(C)(C3)C4)nc12` [Example 488, N-(3-chloro-2-fluorophenyl)-8-ethoxy-2-(1-methyl-2-oxabicyclo[2.1.1]hexan-4-yl)imidazo[1,2-a]pyrazine-6-carboxamide] and `CCOc1nc(C(=O)Nc2cc(F)ccc2OC)cn2cc(C34COC(C)(C3)C4)nc12` [Example 484, 8-Ethoxy-N-(5-fluoro-2-methoxyphenyl)-2-(1-methyl-2-oxabicyclo[2.1.1]hexan-4-yl)imidazo[1,2-a]pyrazine-6-carboxamide] are within 1.5-fold of each other in IC50: 0.0081 µM for the first, 0.0073 µM for the second.

Going from `CCO[C@H]1C[C@@H](Oc2cc3nc(C4CCOCC4)cn3cc2C(=O)Nc2cccc(C(F)F)n2)C1` [Example 436, N-(6-(difluoromethyl)pyridin-2-yl)-7-((1s,3s)-3-ethoxycyclobutoxy)-2-(tetrahydro-2H-pyran-4-yl)imidazo[1,2-a]pyridine-6-carboxamide] to `COc1cc2nc(C3CCOCC3)cn2cc1C(=O)Nc1cccc(CO)n1` [Example 202], the IC50 rises from 0.0008 µM to 0.0137 µM (17-fold). The first is the more potent here.

Compared with `Cc1cnc2c(NC(=O)c3cn4cc(C56COC(CF)(C5)C6)nc4c(F)c3OC(C)C)cnn2c1` [Example 270, 8-Fluoro-2-(1-(fluoromethyl)-2-oxabicyclo[2.1.1]hexan-4-yl)-7-isopropoxy-N-(6-methylpyrazolo[1,5-a]pyrimidin-3-yl)imidazo[1,2-a]pyridine-6-carboxamide], `CCOc1nc(C(=O)Nc2cnn3cc(C)cnc23)cn2cc(C34COC(C)(C3)C4)nc12` [Example 498, 8-Ethoxy-2-(1-methyl-2-oxabicyclo[2.1.1]hexan-4-yl)-N-(6-methylpyrazolo[1,5-a]pyrimidin-3-yl)imidazo[1,2-a]pyrazine-6-carboxamide] is 1.9-fold higher in IC50: 0.0023 µM for the first, 0.0043 µM for the second.

First: COc1cccc(NC(=O)c2cn3cc(C4C5COCC54)nc3cc2OC(C)C)n1 (stereo not shown) [Example 254, 2-(3-Oxabicyclo[3.1.0]hexan-6-yl)-7-isopropoxy-N-(6-methoxypyridin-2-yl)imidazo[1,2-a]pyridine-6-carboxamide]
Second: COC12CC(c3cn4cc(C(=O)Nc5cccc(C(F)F)n5)c(OC(C)C)cc4n3)(C1)C2 [Example 227]
The IC50 of the first is 3.3-fold higher: 0.001 µM for the first, 0.0003 µM for the second.

Compared with `CCOc1nc(C(=O)Nc2cccnc2OC)cn2cc(C3CCOCC3)nc12` [Example 209], `COc1ncccc1NC(=O)c1cn2cc(C3CCOCC3)nc2c(OC)n1` [Example 208] is 3.7-fold higher in IC50: 0.0057 µM for the first, 0.0209 µM for the second.

First: CC(C)Oc1nc2nc(C34COC(C)(C3)C4)cn2cc1C(=O)Nc1snc2cccnc12 [Example 376, 7-Isopropoxy-N-(isothiazolo[4,3-b]pyridin-3-yl)-2-(1-methyl-2-oxabicyclo[2.1.1]hexan-4-yl)imidazo[1,2-a]pyrimidine-6-carboxamide]
Second: CC(C)Oc1nc2nc(C34CCOC(C)(C3)C4)cn2cc1C(=O)Nc1cccc(C(F)F)n1 [Example 236]
The IC50 of the first is 9-fold higher: 0.0018 µM for the first, 0.0002 µM for the second. The second is the more potent here.

Compared with `CC(C)Oc1cc2nc(C(F)(F)F)cn2cc1C(=O)Nc1cccc(C(F)F)n1` [Example 294, N-(6-(difluoromethyl)pyridin-2-yl)-7-isopropoxy-2-(trifluoromethyl)imidazo[1,2-a]pyridine-6-carboxamide], `CC(Oc1cc2nc(C34COC(C)(C3)C4)cn2cc1C(=O)Nc1cccc(C(F)F)n1)C(F)(F)F` (stereo not shown) [Example 323, N-(6-(difluoromethyl)pyridin-2-yl)-2-(1-methyl-2-oxabicyclo[2.1.1]hexan-4-yl)-7-((1,1,1-trifluoropropan-2-yl)oxy)imidazo[1,2-a]pyridine-6-carboxamide] is 8-fold lower in IC50: 0.0056 µM for the first, 0.0007 µM for the second. The second is the more potent here.

Compared with `Cn1cccc(NC(=O)c2cn3cc(C45CCC(C)(C4)OC5)nc3cc2OC2CCCC2)c1=O` (stereo not shown) [Example 558], `Cn1ccc(NC(=O)c2cn3cc([C@]45CC[C@](C)(C4)OC5)nc3nc2OC2CCCC2)n1` (single isomer, unassigned) [Example 636] is 3.4-fold higher in IC50: 0.0011 µM for the first, 0.0037 µM for the second. The first is the more potent here.

First: CC12CC(c3cn4cc(C(=O)Nc5cccc6ccnn56)nc(OC5CCC5)c4n3)(CO1)C2 [Example 348, 8-Cyclobutoxy-2-(1-methyl-2-oxabicyclo[2.1.1]hexan-4-yl)-N-(pyrazolo[1,5-a]pyridin-7-yl)imidazo[1,2-a]pyrazine-6-carboxamide]
Second: CCOc1nc(C(=O)Nc2cccnc2OC)cn2cc([C@]34CC[C@](C)(C3)OC4)nc12 (single isomer, unassigned) [Example 604]
The IC50 of the first is 27-fold higher: 0.0082 µM for the first, 0.0003 µM for the second. The second is the more potent here.

First: COc1cc2nc(C34COC(C)(C3)C4)cn2cc1C(=O)Nc1cccc(C(F)F)n1 [Example 293, N-(6-(difluoromethyl)pyridin-2-yl)-7-methoxy-2-(1-methyl-2-oxabicyclo[2.1.1]hexan-4-yl)imidazo[1,2-a]pyridine-6-carboxamide]
Second: CC(C)Oc1cc2nc(C34CCC(C3)OC4)cn2cc1C(=O)Nc1cccc(C(F)F)n1 (stereo not shown) [Example 246]
The IC50 of the first is 14-fold higher: 0.0028 µM for the first, 0.0002 µM for the second. The second is the more potent here.

Going from `COc1cccc(NC(=O)c2cn3cc(C4CCOCC4)nc3cc2OCCC2CCOC2)n1` (stereo not shown) [Example 435, N-(6-methoxypyridin-2-yl)-2-(tetrahydro-2H-pyran-4-yl)-7-(2-(tetrahydrofuran-3-yl)ethoxy)imidazo[1,2-a]pyridine-6-carboxamide] to `CC(C)(C)c1cn2cc(C(=O)Nc3cccc(C(F)F)n3)c(OC3CCC3)cc2n1` [Example 267, 2-(tert-Butyl)-7-cyclobutoxy-N-(6-(difluoromethyl)pyridin-2-yl)imidazo[1,2-a]pyridine-6-carboxamide], the IC50 falls from 0.0051 µM to 0.002 µM (2.6-fold).

Going from `CC(C)Oc1nc(C(=O)Nc2cccc(C(F)F)n2)cn2cc([C@]34CC[C@](C)(C3)OC4)nc12` (single isomer, unassigned) [Example 589] to `CC(C)Oc1nc2nc([C@@]34CC[C@@](C)(C3)OC4)cn2cc1C(=O)Nc1cccn(C(F)F)c1=O` (single isomer, unassigned) [Example 628], the IC50 falls from 0.0024 µM to 0.0001 µM (24-fold).

Compared with `COc1nc(C(=O)Nc2ccn(C(F)F)n2)cn2cc(C3CCOCC3)nc12` [Example 87], `Cn1ccc(NC(=O)c2cn3cc(C45COC(C)(C4)C5)nc3cc2OC2CC(C)(C)C2)n1` [Example 440, 7-(3,3-Dimethylcyclobutoxy)-N-(1-methyl-1H-pyrazol-3-yl)-2-(1-methyl-2-oxabicyclo[2.1.1]hexan-4-yl)imidazo[1,2-a]pyridine-6-carboxamide] is 7.7-fold lower in IC50: 0.0329 µM for the first, 0.0043 µM for the second. The second is the more potent here.

Same assay, conditions: IRAK4 Biochemical Assay (1 mM ATP, 2 h) IC50 (μM), 1 mM ATP, 2 h, 100 pM IRAK4

Going from `CCc1cccc(NC(=O)c2cn3cc(C45COC(CF)(C4)C5)nc3cc2OC)n1` [Example 58, N-(6-ethylpyridin-2-yl)-2-(1-(fluoromethyl)-2-oxabicyclo[2.1.1]hexan-4-yl)-7-methoxyimidazo[1,2-a]pyridine-6-carboxamide trifluoroacetate] to `CC(C)Oc1cc2nc(C34COC(C)(C3)C4)cn2cc1C(=O)Nc1cccc(N(C)C)n1` [Example 260, N-(6-(dimethylamino)pyridin-2-yl)-7-isopropoxy-2-(1-methyl-2-oxabicyclo[2.1.1]hexan-4-yl)imidazo[1,2-a]pyridine-6-carboxamide 2,2,2-trifluoroacetate], the IC50 falls from 0.0105 µM to 0.0005 µM (21-fold). The second is the more potent here.

Compared with `CC(C)Oc1nc2nc(C34COC(C)(C3)C4)cn2cc1C(=O)Nc1cnn2cccnc12` [Example 307, 7-Isopropoxy-2-(1-methyl-2-oxabicyclo[2.1.1]hexan-4-yl)-N-(pyrazolo[1,5-a]pyrimidin-3-yl)imidazo[1,2-a]pyrimidine-6-carboxamide], `CC(C)Oc1cc2nc(C3CCOCC3)cn2cc1C(=O)Nc1cccc(C(F)F)n1` [Example 92, N-(6-(difluoromethyl)pyridin-2-yl)-7-isopropoxy-2-(tetrahydro-2H-pyran-4-yl)imidazo[1,2-a]pyridine-6-carboxamide] is 1.7-fold lower in IC50: 0.0005 µM for the first, 0.0003 µM for the second.

For `O=C(Nc1cccc(C(F)F)n1)c1cn2cc(C3CC3)nc2cc1OCC1CC(F)(F)C1` [Example 471, 2-Cyclopropyl-7-((3,3-difluorocyclobutyl)methoxy)-N-(6-(difluoromethyl)pyridin-2-yl)imidazo[1,2-a]pyridine-6-carboxamide], the IC50 was 0.0058 µM.
